Laboratory results: ChEMBL document CHEMBL4219043, “Beyond the Rule of 5: Lessons Learned from AbbVie's Drugs and Compound Collection” (J Med Chem, 2018)
In brackets after ≈: the same amount, converted by molar mass.

Legend:
[1] = tested on: Hepatitis C virus; assay: Antiviral activity against HCV genotype 1a H77 harboring NS3 R155K mutant infected in human HuH7 replicon cells after 3 days by luciferase reporter gene assay; format: functional, organism-based, Hepacivirus hominis; conditions: genotype 1a H77, Huh-7, 72 h
[2] = tested on: Hepatitis C virus; assay: Antiviral activity against HCV genotype 1b Con1 harboring NS3 R155K mutant infected in human HuH7 replicon cells after 3 days by luciferase reporter gene assay; format: functional, organism-based, Hepacivirus hominis; conditions: isolate Con1, Huh-7, 72 h
[3] = Plasma clearance in dog at 1 mg/kg, iv by LC-MS/MS analysis; format: ADME, organism-based, Canis lupus familiaris
[4] = tested on: Hepatitis C virus; assay: Antiviral activity against HCV genotype 1a H77 infected in human HuH7 replicon cells after 3 days in presence of 40% human plasma by luciferase reporter gene assay; format: functional, organism-based, Hepacivirus hominis; conditions: genotype 1a H77, Huh-7, 72 h
[5] = tested on: Hepatitis C virus; assay: Resistance index, ratio of EC50 for HCV genotype 1b Con1 harboring NS3 R155K mutant infected in human HuH7 replicon cells to EC50 for HCV genotype 1b Con1 harboring wild type NS3 infected in human HuH7 replicon cells; format: functional, Hepacivirus hominis, isolate Con1
[6] = Half life in dog at 1 mg/kg, iv by LC-MS/MS analysis; format: ADME, organism-based, Canis lupus familiaris; conditions: in vivo
[7] = tested on: Rattus norvegicus; assay: Dose normalized AUC in po dosed rat after 24 hrs by LC-MS/MS analysis; format: ADME, organism-based; conditions: in vivo
[8] = tested on: Hepatitis C virus; assay: Antiviral activity against HCV genotype 1b Con1 harboring NS3 D168V mutant infected in human HuH7 replicon cells after 3 days by luciferase reporter gene assay; format: functional, organism-based, Hepacivirus hominis; conditions: isolate Con1, Huh-7, 72 h
[9] = Half life in po dosed rat by LC-MS/MS analysis; format: ADME, organism-based; conditions: in vivo
[10] = tested on: Hepatitis C virus; assay: Resistance index, ratio of EC50 for HCV genotype 1b Con1 harboring NS3 D168V mutant infected in human HuH7 replicon cells to EC50 for HCV genotype 1b Con1 harboring wild type NS3 infected in human HuH7 replicon cells; format: functional, Hepacivirus hominis, isolate Con1
[11] = tested on: Hepatitis C virus; assay: Resistance index, ratio of EC50 for HCV genotype 1a H77 harboring NS3 R155K mutant infected in human HuH7 replicon cells to EC50 for HCV genotype 1a H77 harboring wild type NS3 infected in human HuH7 replicon cells; format: functional, Hepacivirus hominis
[12] = tested on: Hepatitis C virus; assay: Antiviral activity against HCV genotype 1b Con1 infected in human HuH7 replicon cells after 3 days in presence of 40% human plasma by luciferase reporter gene assay; format: functional, organism-based, Hepacivirus hominis; conditions: isolate Con1, Huh-7, 72 h
[13] = tested on: Canis familiaris; assay: Dose normalized AUC in dog at 3 mg/kg, po after 24 hrs by LC-MS/MS analysis; format: ADME, organism-based, Canis lupus familiaris; conditions: in vivo
[14] = tested on: Hepatitis C virus; assay: Ratio of EC50 in presence of 40% human plasma to EC50 in absence of human plasma for HCV genotype 1a H77 infected in human HuH7 replicon cells; format: functional, Hepacivirus hominis
[15] = tested on: Hepatitis C virus; assay: Resistance index, ratio of EC50 for HCV genotype 1a H77 harboring NS3 D168V mutant infected in human HuH7 replicon cells to EC50 for HCV genotype 1a H77 harboring wild type NS3 infected in human HuH7 replicon cells; format: functional, Hepacivirus hominis
[16] = Solubility in pH 7.2 buffer; format: physicochemical
[17] = tested on: Canis familiaris; assay: Fraction of drug absorbed into portal vein in dog at 3 mg/kg, po by LC-MS/MS analysis; format: ADME, organism-based, Canis lupus familiaris; conditions: in vivo
[18] = tested on: Hepatitis C virus; assay: Antiviral activity against HCV genotype 1a H77 infected in human HuH7 replicon cells after 3 days in absence of human plasma by luciferase reporter gene assay; format: functional, organism-based, Hepacivirus hominis; conditions: genotype 1a H77, Huh-7, 72 h
[19] = Half life in dog at 3 mg/kg, po by LC-MS/MS analysis; format: ADME, organism-based, Canis lupus familiaris; conditions: in vivo
[20] = Plasma clearance in iv dosed rat by LC-MS/MS analysis; format: ADME, organism-based
[21] = Oral bioavailability in rat by LC-MS/MS analysis; format: ADME, organism-based; conditions: in vivo
[22] = Half life in iv dosed rat by LC-MS/MS analysis; format: ADME, organism-based; conditions: in vivo
[23] = tested on: Hepatitis C virus; assay: Antiviral activity against HCV genotype 1a H77 harboring NS3 D168V mutant infected in human HuH7 replicon cells after 3 days by luciferase reporter gene assay; format: functional, organism-based, Hepacivirus hominis; conditions: genotype 1a H77, Huh-7, 72 h
[24] = tested on: Hepatitis C virus; assay: Antiviral activity against HCV genotype 1b Con1 infected in human HuH7 replicon cells after 3 days in absence of human plasma by luciferase reporter gene assay; format: functional, organism-based, Hepacivirus hominis; conditions: isolate Con1, Huh-7, 72 h
[25] = Apparent permeability of the compound by PAMPA; format: ADME
[26] = tested on: Hepatitis C virus; assay: Antiviral activity against HCV genotype 3a infected in human HuH7 replicon cells after 3 days in absence of human plasma by luciferase reporter gene assay; format: functional, organism-based, Hepacivirus hominis; conditions: Huh-7, 72 h
[27] = Ratio of EC50 for HCV genotype 3a infected in human HuH7 replicon cells to EC50 for HCV genotype 1a H77 infected in human HuH7 replicon cells; format: functional
[28] = Oral bioavailability in dog at 3 mg/kg by LC-MS/MS analysis; format: ADME, organism-based, Canis lupus familiaris; conditions: in vivo

| Compound | clearance [3] | EC50 [4] | Ratio EC50 [5] | half-life [6] | AUC/dose [7] | half-life [9] | Ratio EC50 [10] | Ratio EC50 [11] | EC50 [12] | AUC/dose [13] | Ratio EC50 [14] | Ratio EC50 [15] | Solubility [16] | FaFg [17] | EC50 [18] | half-life [19] | clearance [20] | bioavailability [21] | half-life [22] | EC50 [23] | further results |
| --- | --- | --- | --- | --- | --- | --- | --- | --- | --- | --- | --- | --- | --- | --- | --- | --- | --- | --- | --- | --- | --- |
| Cc1cc(C(=O)N[C@H]2CCCCC/C=C\[C@@H]3C[C@@]3(C(=O)NS(=O)(=O)C3(C)CC3)NC(=O)[C@@H]3C[C@@H](Oc4nc5cc(F)ccc5nc4C(F)(F)F)CN3C2=O)no1 | 0.333 mL/min/kg | 9 nM | 1 | 2.9 h | 0.19 µg·h/mL | 4.7 h | 4 | 3 | 11 nM | 46.8 µg·h/mL | 6 - 35 | 127 | 20.6 µM (≈ 16.6 µg/mL) | 0.9 | 0.7 nM | 2.9 h | 26.7 mL/min/kg | 27% | 4.1 h | 14 nM | EC50 [1]: 0.3 nM; EC50 [2]: 0.4 nM; EC50 [8]: 1.3 nM; EC50 [24]: 0.5 nM; Papp [25]: 12.1 ×10⁻⁶ cm/s; EC50 [26]: 124 nM |
| Cc1cc(C(=O)N[C@H]2CCCCC/C=C\[C@@H]3C[C@@]3(C(=O)NS(=O)(=O)C3CC3)NC(=O)[C@@H]3C[C@@H](Oc4nc5cc(F)ccc5nc4C(F)(F)F)CN3C2=O)no1 | 0.667 mL/min/kg | 7 nM | 1 | 3.5 h | 0.14 µg·h/mL | 1.9 h | 5 | 3 | 7 nM | 18 µg·h/mL | 6 - 35 | 149 | 155 µM (≈ 123 µg/mL) | 0.8 | 0.8 nM | 2.2 h | 38.3 mL/min/kg | 28% | 2.1 h | 14 nM | EC50 [1]: 0.3 nM; EC50 [8]: 1.5 nM; Ratio EC50 [27]: >80; EC50 [24]: 0.5 nM; Papp [25]: 5.1 ×10⁻⁶ cm/s; EC50 [26]: 64 to 83 nM |
| Cn1ccc(C(=O)N[C@H]2CCCCC/C=C\[C@@H]3C[C@@]3(C(=O)NS(=O)(=O)C3(C)CC3)NC(=O)[C@@H]3C[C@@H](Oc4nc5cc(OC(F)(F)F)ccc5c5ccc(F)cc45)CN3C2=O)n1 | 0.167 mL/min/kg | 7 nM | 0.5 | 3.2 h | 0.4 µg·h/mL | 4.6 h | 2 | 65 | 3 nM | 138 µg·h/mL | >30 | 97 | 0.65 µM (≈ 0.565 µg/mL) | 0.8 | 0.2 nM | 4 h | 18.3 mL/min/kg | 43% | 5 h | 3 nM | EC50 [1]: 2 nM; EC50 [2]: 0.03 nM; Ratio EC50 [27]: <=10; EC50 [24]: 0.1 nM; Papp [25]: 0.06 ×10⁻⁶ cm/s; bioavailability [28]: 81%; EC50 [26]: 0.3 to 0.8 nM |
| CC(=O)N(C)[C@@H](CC(C)(C)C)C(=O)N[C@H]1CCCCC/C=C\[C@@H]2C[C@@]2(C(=O)NS(=O)(=O)C2(C)CC2)NC(=O)[C@@H]2C[C@@H](Oc3nc4cc(F)ccc4c4ccccc34)CN2C1=O | 1.17 mL/min/kg | 7 nM | 33 | 2.2 h | 0.09 µg·h/mL | 1.5 h | 11 | 0.8 | 12 nM | 11.6 µg·h/mL | 6 - 35 | 2 | 2.2 µM (≈ 1.89 µg/mL) | 0.8 | 0.5 nM | 2.1 h | 51.7 mL/min/kg | 27% | 1.7 h | 0.4 nM | EC50 [1]: 0.6 nM; EC50 [2]: 8 nM; EC50 [8]: 3 nM; EC50 [24]: 2 nM; Papp [25]: 0.28 ×10⁻⁶ cm/s; bioavailability [28]: 76%; EC50 [26]: 4 to 8 nM |
| Cc1cc(C(=O)N[C@H]2CCCCC/C=C\[C@@H]3C[C@@]3(C(=O)NS(=O)(=O)C3(C)CC3)NC(=O)[C@@H]3C[C@@H](Oc4nc5ccccc5c5ccc(F)cc45)CN3C2=O)no1 | 0.333 mL/min/kg | 6 nM | 4 | 2.3 h | 0.16 µg·h/mL | 3.5 h | 9 | 18 | 8 nM | 85 µg·h/mL | 6 - 35 | 168 | 1.9 µM (≈ 1.5 µg/mL) | 1.4 | 0.7 nM | 2 h | 41.7 mL/min/kg | 40% | 3.2 h | 8 nM | EC50 [2]: 0.4 nM; EC50 [8]: 0.9 nM; EC50 [24]: 0.5 nM; Papp [25]: 0.19 ×10⁻⁶ cm/s; bioavailability [28]: 140%; EC50 [26]: 4 to 7 nM |
